Where two headings read alike, the source gives them in different places.
Experiments:
citrated human plasma [1] = assay: Prothrombin time (PT) plasma clotting assay; assay type: biochemical
Description: (§1) The inhibitory effect on plasma coagulation was evaluated in the thrombin time (TT), activated partial thromboplastin time (APTT) and prothrombin time (PT) assays by using citrated human plasma as substrate [Bagdy, D. et. al.: Thromb. Haemostas. 67, 325 (1992)]. The TT assay measures the inhibition of a single step, the coagulation of fibrinogen on the action of exogenous thrombin (final concentration 2.5 NIH U/ml). Clotting of plasma in the APTT and PT assays was induced by recalcification. Endogenous thrombin generated could theoretically be present at a final concentration as high as 50 NIH U/ml (APTT, PT). These assays detect the sum of inhibitory actions on fibrin formation and thrombin generation, which includes several proteolytic reactions mediated by either thrombin or other enzymes, e.g. fXa. Anticlotting activity is expressed in CT2, which is the concentration (nM) required to double the clotting time.

clot-bound factor Xa = clot-bound factor Xa (Homo sapiens, UniProt P00742); assay: Enzyme inhibition in platelet-rich plasma clots, chromogenic substrate Moc-D-Chg-Gly-Arg-pNA; assay type: biochemical
Sequence of clot-bound factor Xa (P00742 235-488 limits assumed): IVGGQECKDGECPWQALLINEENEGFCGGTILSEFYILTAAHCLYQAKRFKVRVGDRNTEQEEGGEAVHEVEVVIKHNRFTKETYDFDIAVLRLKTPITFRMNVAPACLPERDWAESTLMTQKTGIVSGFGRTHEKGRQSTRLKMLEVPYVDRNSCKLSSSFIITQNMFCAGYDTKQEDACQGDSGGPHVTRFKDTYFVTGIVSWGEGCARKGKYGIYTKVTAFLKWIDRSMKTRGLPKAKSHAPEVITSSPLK
Sequence of clot-bound factor Xa (P00742 41-179 limits assumed): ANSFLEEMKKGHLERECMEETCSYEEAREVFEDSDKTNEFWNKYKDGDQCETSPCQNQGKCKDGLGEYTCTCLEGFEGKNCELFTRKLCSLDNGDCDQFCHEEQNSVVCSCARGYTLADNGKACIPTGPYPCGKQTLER
Description: (§2) Tos-Gly-Pro-Arg-pNA (S1) for thrombin and Moc-D-Chg-Gly-Arg-pNA (S2) for factor Xa, as published (Bajusz, S. et al.: PCT Pub. No. WO97/46576) briefly. The assays were carried out at room temperature in glass tubes and 96-well microtiter plates.
(§3) Solutions, (i) Buffer A: 0.1 M sodium phosphate/0.05 M NaCl (pH 8.5). (ii) Inhibitors: 0.1, 1.0 and 10 mg/ml solutions in buffer A containing 0.02% human albumin. (iii) Substrates: 1 mM of S1 and 2 mM of S2 in distilled water.
(§4) (b) Preparation of plasma clots. Platelet rich plasma samples (200 μl) placed in glass tubes were incubated at room temperature with 80 μl 40 mM CaCl2 for 60 min. The clots were washed with 2 ml aliquots of saline (0.9% NaCl) with gentle agitation to remove unbound enzymes In case of successful washing the optical density of the reaction mixture of wash and S1 is less than 5% of the control. The plasma clot thus obtained was kept under saline in the tube until use.
(§5) (c) Assessment of the enzyme inhibition in the clots. After removal of saline, the plasma clot was incubated at 37° C. with 400 μl inhibitor (or buffer A as negative control) for 5 min. and with 100 μl substrate S1 or S3 for 30 min., then the reaction was stopped with 100 μl 50% acetic acid. 150 μl portions of the reaction mixtures were placed in the wells of a microtiter plate and read at 405 nm (ELISA READER 800, Bio-Tek Instruments Inc. Winooski, Vt., USA). IC50 values were generated from the extinction data graphically.

[2] = system: citrated human plasma (exogenous thrombin); assay: Thrombin time (TT) plasma clotting assay; assay type: biochemical; conditions: thrombin 2.5 NIH U/ml
Description: as §1

clot-bound thrombin = clot-bound thrombin (Homo sapiens, UniProt P00734); assay: Enzyme inhibition in platelet-rich plasma clots, chromogenic substrate Tos-Gly-Pro-Arg-pNA; assay type: biochemical
Description: as §2, §3, §4, §5

citrated human plasma [3] = assay: Activated partial thromboplastin time (APTT) plasma clotting assay; assay type: biochemical
Description: as §1

[4] = target: tissue plasminogen activator (tPA) (Homo sapiens, UniProt P00750); assay: Fibrin plate assay, tissue plasminogen activator; assay type: biochemical; conditions: reduction of lysed area to 50% of control, read-out: LA50 tPA
Sequence of tissue plasminogen activator (tPA) (P00750 36-562, species assumed): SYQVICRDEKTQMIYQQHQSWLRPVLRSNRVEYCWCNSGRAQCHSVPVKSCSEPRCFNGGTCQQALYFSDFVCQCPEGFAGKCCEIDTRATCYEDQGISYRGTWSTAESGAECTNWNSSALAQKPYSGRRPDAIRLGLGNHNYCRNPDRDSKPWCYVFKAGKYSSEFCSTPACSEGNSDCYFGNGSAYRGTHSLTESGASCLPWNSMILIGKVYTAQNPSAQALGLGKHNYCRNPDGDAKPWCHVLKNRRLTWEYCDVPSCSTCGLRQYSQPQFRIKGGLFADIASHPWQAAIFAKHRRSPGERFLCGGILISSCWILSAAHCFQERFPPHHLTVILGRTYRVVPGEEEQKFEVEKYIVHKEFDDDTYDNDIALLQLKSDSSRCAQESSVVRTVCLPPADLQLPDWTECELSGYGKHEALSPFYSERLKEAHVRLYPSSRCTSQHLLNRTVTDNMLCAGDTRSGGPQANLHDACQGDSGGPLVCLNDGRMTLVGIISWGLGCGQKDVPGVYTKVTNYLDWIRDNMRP
Source text: (§6) Inhibitory effects of the compounds of the invention on plasmin (PL) and plasmin generation by plasminogen (Plogen) activators, such as tissue plasminogen activator (tPA), and urokinase (UK) were examined by the fibrin plate assay. (See e.g., Bagdy, D., Barabás, E., Bajusz, S., and Széll, E., Thromb. Haemostas., 67:325-330 (1992); Barabás, E. Szell, E. and Bajusz, S, Blood Coagulation and Fibrinolysis, 4: 243 (1993)) The results are shown in Table 1, Column C. With a few exceptions the analogues are somewhat more inhibitory than Efegatran against the three fibrinolytic enzymes.

urokinase (UK) = urokinase (UK) (Homo sapiens, UniProt P00749); assay: Fibrin plate assay, urokinase; assay type: biochemical; conditions: reduction of lysed area to 50% of control, urokinase, read-out: LA50 UK
Source text: as §6

LPS-treated rats = assay: Survival in a rat model for disseminated intravascular coagulation; assay type: in vivo; conditions: for Survival rate %: rats, 30 mg/kg LPS i.v.
[5] = system: endotoxin-treated rabbits; assay type: in vivo, rabbit; conditions: for Lethality %, 2 hrs / Lethality no. died/treated animals, 2 hrs / Lethality %, 4 hrs / Lethality no. died/treated animals, 4 hrs: endotoxin-treated rabbits
endotoxin-treated rats = assay: Rat model for disseminated intravascular coagulation (fibrin deposition, platelet count, FDP)
Description: The effects of compound 1 of the invention and two control anticoagulants, Efegatran (C) and heparin (H) on such phenomena were examined in endotoxin-treated rats [Ford, A. J. and Longridge, D. J.: Br. J. Pharmacol. 110, Suppl.
Male rats were treated with an i.v. bolus injection of 10 mg/kg endotoxin. It was followed by i.v. infusion of saline or the test compounds for four hours. Of compounds 1 and 3, 0.25 mg/kg was given as an initial bolus injection followed by an 0.25 mg/kg/h i.v. infusion for four hours. Heparin (H) was applied similarly, 50 IU/kg as an initial bolus injection followed by an 50 IU/kg/h i.v. infusion for four hours. Control group of animals was treated with 0.9% saline.
The deposition of ^125I-fibrin was investigated in selected organs (liver and kidney. ^125I-fibrinogen was injected 30 min. prior to endotoxin injection. The radioactivities in the tissue samples were measured in a gamma counter (Wallac Wizard 1470). Microthrombi formation in the organs was assessed using the ratio of organ ^125I activity to injected total ^125I activity, defined as the microthrombi index. Changes in this parameter are expressed in percent compared to saline group.
Number of platelet count was determined in an automatic appliance (Sysmex F-800) and related to control values.
Determination of FDP (fibrin degradation products) by Aggristin (Ristocetin) precipitation assay. […]

plasmin (PL) = plasmin (PL) (Homo sapiens, UniProt P00747); assay: Fibrin plate assay, plasmin; assay type: biochemical; conditions: reduction of lysed area to 50% of control, read-out: LA50 PL
Sequence of plasmin (PL) (P00747 581-810 limits assumed, species assumed): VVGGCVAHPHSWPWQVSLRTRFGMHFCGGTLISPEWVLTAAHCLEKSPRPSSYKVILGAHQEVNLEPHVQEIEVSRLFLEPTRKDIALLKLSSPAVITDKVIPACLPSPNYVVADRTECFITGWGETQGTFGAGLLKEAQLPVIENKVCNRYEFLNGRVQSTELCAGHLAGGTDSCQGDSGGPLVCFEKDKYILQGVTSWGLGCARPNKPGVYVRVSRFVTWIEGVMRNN
Sequence of plasmin (PL) (P00747 97-580 limits assumed, species assumed): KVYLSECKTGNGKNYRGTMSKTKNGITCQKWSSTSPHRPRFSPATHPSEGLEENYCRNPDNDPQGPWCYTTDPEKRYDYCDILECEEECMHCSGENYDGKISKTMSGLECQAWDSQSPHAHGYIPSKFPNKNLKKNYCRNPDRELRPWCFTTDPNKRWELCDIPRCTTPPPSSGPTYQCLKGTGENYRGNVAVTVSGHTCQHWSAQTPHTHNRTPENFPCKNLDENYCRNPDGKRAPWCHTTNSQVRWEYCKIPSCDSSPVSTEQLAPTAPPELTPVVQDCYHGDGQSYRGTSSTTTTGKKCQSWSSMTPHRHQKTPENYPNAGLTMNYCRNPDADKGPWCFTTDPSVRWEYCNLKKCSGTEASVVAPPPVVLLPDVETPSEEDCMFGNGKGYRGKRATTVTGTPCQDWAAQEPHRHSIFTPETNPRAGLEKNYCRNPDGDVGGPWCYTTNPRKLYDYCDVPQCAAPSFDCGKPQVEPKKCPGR
Source text: as §6

Structure (SMILES): CCOC(=O)N[C@H](CC1CCCCCC1)C(=O)N1CCC[C@H]1C(=O)N[C@H](C=O)CCCNC(=N)N [Compound 1, ethoxycarbonyl-D-cycloheptylalanyl-L-prolyl-L-arginine aldehyde]
- CT2 PT (concentration required for doubling the clotting time) (citrated human plasma [1]): 1839 nM
- IC50 (clot-bound factor Xa): 0.118 µM
- CT2 TT (concentration required for doubling the clotting time) [2]: 147 nM
- Inhibition of clot-bound thrombin compared with Efegatran (in words) (clot-bound thrombin): surpass Efegatran
- IC50 (clot-bound thrombin; clot-bound thrombin, platelet-rich plasma clot): 0.103 µM
- CT2 APTT (concentration required for doubling the clotting time) (citrated human plasma [3]): 331 nM
- IC50 [4]: 10 µM
- IC50 (urokinase (UK)): 14 µM
- Effectiveness on survival compared with reference C (in words) (LPS-treated rats; LPS-treated rats): more effective than reference C
- Survival rate % (LPS-treated rats; 0.75 mg/kg bolus + infusion, 0 hours): 100%
- Survival rate % (LPS-treated rats; 0.75 mg/kg bolus + infusion, 4 hours): 100%
- Survival rate % (LPS-treated rats; 0.75 mg/kg bolus + infusion, 5 hours): 100%
- Survival rate % (LPS-treated rats; 0.75 mg/kg bolus + infusion, 6 hours): 100%
- Survival rate % (LPS-treated rats; 0.75 mg/kg bolus + infusion, 7 hours): 90%
- Survival rate % (LPS-treated rats; 0.75 mg/kg bolus + infusion, 8 hours): 70%
- Survival rate % (LPS-treated rats; 1.0 mg/kg bolus + infusion, 0 hours): 100%
- Survival rate % (LPS-treated rats; 1.0 mg/kg bolus + infusion, 4 hours): 100%
- Survival rate % (LPS-treated rats; 1.0 mg/kg bolus + infusion, 5 hours): 100%
- Survival rate % (LPS-treated rats; 1.0 mg/kg bolus + infusion, 6 hours): 100%
- Survival rate % (LPS-treated rats; 1.0 mg/kg bolus + infusion, 7 hours): 90%
- Survival rate % (LPS-treated rats; 1.0 mg/kg bolus + infusion, 8 hours): 90%
- Survival rate % (LPS-treated rats; 1.5 mg/kg bolus + infusion, 0 hours): 100%
- Survival rate % (LPS-treated rats; 1.5 mg/kg bolus + infusion, 4 hours): 100%
- Survival rate % (LPS-treated rats; 1.5 mg/kg bolus + infusion, 5 hours): 100%
- Survival rate % (LPS-treated rats; 1.5 mg/kg bolus + infusion, 6 hours): 100%
- Survival rate % (LPS-treated rats; 1.5 mg/kg bolus + infusion, 7 hours): 100%
- Survival rate % (LPS-treated rats; 1.5 mg/kg bolus + infusion, 8 hours): 100%
- Effect on lethality of endotoxin-treated rabbits (in words) ([5]; compared with endotoxin alone): significantly reduce the lethality
- Lethality %, 2 hrs ([5]; 0.25 mg/kg/h infusion): 0%
- Lethality no. died/treated animals, 2 hrs ([5]; 0.25 mg/kg/h infusion): 0/19
- Lethality %, 4 hrs ([5]; 0.25 mg/kg/h infusion): 16%
- Lethality no. died/treated animals, 4 hrs ([5]; 0.25 mg/kg/h infusion): 3/19
- Lethality %, 2 hrs ([5]; 0.5 mg/kg/h infusion): 0%
- Lethality no. died/treated animals, 2 hrs ([5]; 0.5 mg/kg/h infusion): 0/12
- Lethality %, 4 hrs ([5]; 0.5 mg/kg/h infusion): 17%
- Lethality no. died/treated animals, 4 hrs ([5]; 0.5 mg/kg/h infusion): 2/12
- DIC-inhibiting potential (in words) (endotoxin-treated rats): more pronounced than that of either heparin or Efegatran
- IC50 (plasmin (PL)): 18 µM
